Source: patent publication US20060029548A1, “Methods of diagnosing, monitoring and treating pulmonary diseases” (priority 2004, published 2006)

What was measured:
[1] = system: pulmonary RAR-containing afferent nerve fiber; assay: Vagal activation experiments in dogs: action potentials in RAR-containing fibers; type: in vivo; conditions: anesthetized dog
Experimental: (§1) The experiments described in Example 5 were performed essentially as described in Pelleg et al. [(1996) J. Physiol. 490(1):265-275] and U.S. Pat. No. 5,874,420, both of which are incorporated herein by reference in their entirety. In brief, they were performed on anesthetized (sodium pentobarbitone, 30 mg kg^−1 plus 3 mg kg^−1 h^−1, intravenous) dogs artificially ventilated with room air using a respirator. Arterial blood pH, PO2, PCO2, body temperature were maintained as described in U.S. Pat. No. 5,874,420. A peripheral vein was cannulated for the administration of physiological saline solution and maintenance doses of anesthetic. Catheters were introduced via the femoral vein and left atrial appendage and positioned in the right atrium and left atrium for the administration of test solutions. The chest was opened by a longitudinal sternotomy. The right cervical vagosympathetic trunk was exposed by a midcervical longitudinal section of the skin and careful dissection of neck muscles and connective tissues. The edges of the cut skin were elevated and secured to create a trough which was filled with warm (about 37° C.) mineral oil. A section of the vagosympathetic trunk was placed on a small plate of black Perspex™ and fine branches were separated from the main bundle by careful dissection using microsurgical tools and a dissecting microscope (Model F212, Jenopik Jena, GmbH, Germany).
Extracellular neural action potentials were recorded using a custom-made bipolar electrode that contained two platinum-iridium wires (1.25 cm×0.0125 cm) connected to a high-impedence first-stage differential amplifier (model AC8331, CW, Inc., Ardmore, Pa.) via a shielded cable. The output of the first-stage amplifier was fed into a second-stage differential amplifier (model BMA-831/C, CWE, Inc.). Isolated fibers were laid on the pair of platinum-iridium wires. Vagal C fibers with chemosensitive endings have a sparse irregular discharge which is not associated with cardiac or respiratory cycles. Confirmation of fiber type was obtained by: first monitoring the response to capsaicin (10 microg kg^−1, intra-right atrial bolus); second, monitoring the response to mechanical stimulation of the lungs using gentle probing with forceps as well as inflation of the lungs to 2-3 times the tidal volume; and third, determining the speed of conduction using a stimulating electrode positioned distal to the initial recording site. Nerve fibers with RAR on their pulmonary endings, spontaneously fire a brief (i.e., short lasting) volley of action potentials associated with peak tracheal pressure during each respiratory cycle.
[…] Volume controls consisted of either 5 ml+5 ml or 1 ml+3 ml physiological saline. All injections were performed in the same mode by the same person. To exclude involvement of baroreceptors in the recorded neural activity, the latter was monitored before and after a bolus of nitroglycerine (1 mg; intravenous).
The procedure described in Example 1 was used to measure action potentials in dog pulmonary fibers with RAR on their terminals following administration of various agents. RAR activation generated a brief volley of action potentials associated with each respiratory cycle that was seen before as well as after administration of ATP (FIG. 7). […] Thus ATP modified the activity of the RAR-containing fiber manifested in their transient loss of the rapid adaptability characteristic.

vagal C fiber = assay: Vagal activation experiments in dogs: action potentials in vagal C fibers; type: in vivo; conditions: anesthetized dog, rapid bolus; simultaneous recording with RAR-containing fiber
Experimental: as §1
Extracellular neural action potentials were recorded using a custom-made bipolar electrode that contained two platinum-iridium wires (1.25 cm×0.0125 cm) connected to a high-impedence first-stage differential amplifier (model AC8331, CW, Inc., Ardmore, Pa.) via a shielded cable. The output of the first-stage amplifier was fed into a second-stage differential amplifier (model BMA-831/C, CWE, Inc.). Isolated fibers were laid on the pair of platinum-iridium wires. Vagal C fibers with chemosensitive endings have a sparse irregular discharge which is not associated with cardiac or respiratory cycles. […]
ATP (3 umole kg^−1) and capsaicin (10 ug kg^−1) were administered as a rapid bolus into the right atrium (5 ml test solution+5 ml physiological saline flush). α,βmATP and β,γmATP were given as one low dose only (0.75 umol kg^−1) to avoid systemic side effects. […] To exclude involvement of baroreceptors in the recorded neural activity, the latter was monitored before and after a bolus of nitroglycerine (1 mg; intravenous). […]

[2] = system: pulmonary vagal afferent C fibers (P2X3/P2X2/3-receptors); assay: Perfused nerve-lung preparation: action potentials in C fibers; type: cell-based, guinea pig; conditions: C fibers (n=4); 10 μM, 1 mL bolus; mean±SD
Experimental: (§2) The method for the extracellular recording of the activity of vagal sensory neurons projecting to guinea pig lungs -has been described in detail previously in Canning et al. [(2004) J. Physiol. 557:543-545], which is incorporated herein by reference in its entirety. Briefly, male Hartley guinea pigs (100-200 g) were killed with CO2 inhalation and exsanguination. The blood from the pulmonary circulation was washed out by in situ perfusion with Krebs' bicarbonate solution (KBS; comprised of 118 mM NaCl, 5.4 mM KCl, 1.0 mM NaH2PO4, 1.2 mM MgSO4, 1.9 mM CaCl2, 25.0 mM NaHCO3, 11.1 mM dextrose, and gassed with 95% O2-5% CO2 at pH7.4). The KBS contained 3 uM indomethacin to reduce the indirect influence of tissue prostanoids on sensory fiber activity. Trachea and right lungs, having intact right-side extrinsic vagal innervation by the inclusion, e.g., of right jugular and nodose ganglia, were dissected from the exsanguinated guinea pigs and placed in a two-compartment tissue bath. The right nodose and jugular ganglia, along with the rostral vagus nerve, were placed into one compartment of the tissue bath whereas the lung and trachea were placed into the second compartment of the tissue bath. The two compartments were separately superfused with KBS (6 ml min^−1, at 37° C.).
(§3) The pulmonary artery and trachea were cannulated with polyethylene (PE) tubing and continuously perfused with KBS (4 ml min^−1 and 2 ml min^−1, respectively). […]
(§4) Once a mechanosensitive receptive field was identified, a brief [<1 millisecond (ms)] electrical stimulus was delivered by a small concentric electrode that was positioned over a discrete region of the mechanosensitive receptive field to determine the conduction velocity of the fiber. […] Conduction velocity was calculated by dividing the distance along the nerve pathway by the time between the shock artifact and the action potential evoked by electrical stimulation of the mechanosensitive receptive field. […]

[3] = system: pulmonary vagal afferent A fibers (P2X3/P2X2/3-receptors); assay: Perfused nerve-lung preparation: action potentials in A fibers; type: cell-based, guinea pig; conditions: A fibers (n=7); 10 μM, 1 mL bolus; mean±SD
Experimental: as §2, §3, §4

[4] = system: vagal action potentials elicited by ATP; conditions: dog; cited from earlier work

Row | Compound | potency relative to ATP ([1]; FIG. 9) | effect on action potentials of RAR-containing fibers ([1]; rapid bolus, ATP 6 μmol/kg, capsaicin 10 ug kg−1, analogs 0.75 umol kg−1) | effect on action potentials of C fibers (vagal C fiber) | frequency of the generated action potentials [2] | frequency of the generated action potentials [3] | effect on number of vagal action potentials elicited by ATP [4]
1 | Nc1ncnc2c1ncn2[C@@H]1O[C@H](COP(=O)(O)CP(=O)(O)OP(=O)(O)O)[C@@H](O)[C@H]1O [α,βmATP, α,β-methylene ATP] | more potent than ATP | acted similarly to ATP | acted similarly to ATP | 146±29 discharge/sec | 1543±285 discharge/sec | –
2 | Cc1nc(N=Nc2ccc(S(=O)(=O)O)cc2S(=O)(=O)O)c(COP(=O)(O)O)c(C=O)c1O [PPADS, pyridoxalphosphate-6-azophenyl-2′4′-disulphonic acid] | – | – | – | – | – | reduced the number of vagal action potentials
